Data published in patent publication US12264158B2, “Protein kinase MKK4 inhibitors for promoting liver regeneration or reducing or preventing hepatocyte death” (HEPAREGENIX GMBH, priority 2018, dated 2025).

Tests used:
[1] = molecular target: T1, MEKK2 (Homo sapiens, UniProt Q9Y2U5); test: Radiometric protein kinase assay, MEKK2; type: biochemical; conditions: substrate Casein, ATP 0.2 μM; read-out: MEKK2, potency derived from IC50-values
T1 construct: purchased ProQinase #0583-0000-1
T1 sequence (Q9Y2U5 1-619): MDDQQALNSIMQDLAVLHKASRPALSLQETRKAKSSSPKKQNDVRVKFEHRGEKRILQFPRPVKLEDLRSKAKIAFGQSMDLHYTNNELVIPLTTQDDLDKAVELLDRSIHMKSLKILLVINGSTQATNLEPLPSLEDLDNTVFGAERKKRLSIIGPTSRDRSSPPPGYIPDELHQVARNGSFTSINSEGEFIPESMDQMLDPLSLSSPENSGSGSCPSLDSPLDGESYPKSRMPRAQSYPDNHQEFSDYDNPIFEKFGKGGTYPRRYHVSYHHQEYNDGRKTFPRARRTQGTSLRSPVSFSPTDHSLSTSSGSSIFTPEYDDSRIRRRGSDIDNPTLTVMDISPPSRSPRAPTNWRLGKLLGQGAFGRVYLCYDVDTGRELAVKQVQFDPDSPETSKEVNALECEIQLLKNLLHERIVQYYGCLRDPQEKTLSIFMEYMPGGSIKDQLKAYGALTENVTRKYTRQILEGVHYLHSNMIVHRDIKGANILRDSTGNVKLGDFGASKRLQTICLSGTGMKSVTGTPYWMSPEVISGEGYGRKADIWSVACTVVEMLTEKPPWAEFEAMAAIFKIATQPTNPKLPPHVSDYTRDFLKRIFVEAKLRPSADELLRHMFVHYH
Experimental: A radiometric protein kinase assay was used for measuring the kinase activity of the respective protein kinases. All kinase assays were performed in 96-well polypropylene plates. After the reactions were stopped, the assay mixtures were transferred to 96-well MSFC filter-plates (Millipore). The reaction mix was passed through the filter membrane by aspiration, the membrane was washed 3 times with 150 mM H3PO4, once with ethanol, dried and liquid scintillation cocktail was added. Radioactivity was determined by counting of the samples in a Microbeta multiwell scintillation counter (Wallac).

[2] = molecular target: T2, MKK7 (Homo sapiens, UniProt O14733); test: KINOMEscan competition binding assay, selectivity against off-target MKK7; conditions: concentration of 100 nM
T2 construct: M1/R419; host or cells: HEK-293
T2 sequence (O14733 1-419): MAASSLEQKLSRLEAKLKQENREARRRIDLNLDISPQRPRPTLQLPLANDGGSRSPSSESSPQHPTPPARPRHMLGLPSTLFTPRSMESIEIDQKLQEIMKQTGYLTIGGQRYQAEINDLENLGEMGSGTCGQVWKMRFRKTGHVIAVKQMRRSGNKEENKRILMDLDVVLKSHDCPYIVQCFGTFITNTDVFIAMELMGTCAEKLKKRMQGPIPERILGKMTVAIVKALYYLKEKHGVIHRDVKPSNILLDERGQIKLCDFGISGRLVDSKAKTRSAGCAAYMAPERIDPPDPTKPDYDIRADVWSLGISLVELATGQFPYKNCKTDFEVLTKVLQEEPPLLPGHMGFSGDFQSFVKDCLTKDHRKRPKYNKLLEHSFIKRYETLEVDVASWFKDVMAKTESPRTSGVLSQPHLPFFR
Experimental: (§1) The assay was performed by combining three components: DNA-tagged kinase; immobilized ligand; and a test compound. The ability of the test compound to compete with the immobilized ligand was measured via quantitative PCR of the DNA tag. The technology is described in detail in Fabian, M. A. et al. A small molecule-kinase interaction map for clinical kinase inhibitors. Nat. […] M. W. et al. A quantitative analysis of kinase inhibitor selectivity, Nat.
(§2) For investigation of the affinity to MKK4, MKK7 and JNK1, the kinases were produced in HEK-293 cells and subsequently tagged with DNA for qPCR detection. […] The liganded beads were blocked with excess biotin and washed with blocking buffer (SEABLOCK™ (Pierce), 1% BSA, 0.05% TWEEN®20, 1 mM DTT) to remove unbound ligand and to reduce nonspecific binding. […] All reactions were performed in polystyrene 96-well plates in a final volume of 0.135 mL. […] The kinase concentration in the eluates was measured by qPCR.
(§3) The test compounds were provided as 10 mM stock solutions. The test solutions at indicated final concentrations were prepared at DiscoverX.

[3] = molecular target: BRaf (Homo sapiens, UniProt P15056); test: KINOMEscan competition binding assay, selectivity against off-target BRaf; conditions: concentration of 100 nM
Sequence of BRaf (P15056 whole entry): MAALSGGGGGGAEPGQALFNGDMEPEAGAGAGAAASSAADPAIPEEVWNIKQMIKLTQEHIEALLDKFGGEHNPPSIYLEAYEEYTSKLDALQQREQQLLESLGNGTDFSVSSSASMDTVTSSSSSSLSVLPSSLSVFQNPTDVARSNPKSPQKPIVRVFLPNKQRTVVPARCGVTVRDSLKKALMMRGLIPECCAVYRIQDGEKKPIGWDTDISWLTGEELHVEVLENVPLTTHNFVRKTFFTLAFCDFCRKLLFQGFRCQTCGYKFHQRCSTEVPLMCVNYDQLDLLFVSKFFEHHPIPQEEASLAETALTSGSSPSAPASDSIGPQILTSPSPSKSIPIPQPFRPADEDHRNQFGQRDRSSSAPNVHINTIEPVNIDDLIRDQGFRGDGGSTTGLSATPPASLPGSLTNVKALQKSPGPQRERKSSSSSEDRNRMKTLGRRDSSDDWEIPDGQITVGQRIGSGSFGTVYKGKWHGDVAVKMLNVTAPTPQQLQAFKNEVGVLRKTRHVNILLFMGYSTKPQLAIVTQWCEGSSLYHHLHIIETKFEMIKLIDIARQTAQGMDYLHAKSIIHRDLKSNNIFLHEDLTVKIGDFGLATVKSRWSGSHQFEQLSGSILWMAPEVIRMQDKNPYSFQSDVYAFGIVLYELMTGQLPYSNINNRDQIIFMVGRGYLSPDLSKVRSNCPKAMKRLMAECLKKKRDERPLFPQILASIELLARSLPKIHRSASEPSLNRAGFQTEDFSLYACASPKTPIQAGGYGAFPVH
Experimental: as §1, §3

[4] = molecular target: T3, JNK1 (Homo sapiens, UniProt P45983); test: KINOMEscan competition binding assay, selectivity against off-target JNK1; conditions: concentration of 100 nM
T3 construct: M1/Q384; host or cells: HEK-293
T3 sequence (P45983 1-384 isoform P45983-2): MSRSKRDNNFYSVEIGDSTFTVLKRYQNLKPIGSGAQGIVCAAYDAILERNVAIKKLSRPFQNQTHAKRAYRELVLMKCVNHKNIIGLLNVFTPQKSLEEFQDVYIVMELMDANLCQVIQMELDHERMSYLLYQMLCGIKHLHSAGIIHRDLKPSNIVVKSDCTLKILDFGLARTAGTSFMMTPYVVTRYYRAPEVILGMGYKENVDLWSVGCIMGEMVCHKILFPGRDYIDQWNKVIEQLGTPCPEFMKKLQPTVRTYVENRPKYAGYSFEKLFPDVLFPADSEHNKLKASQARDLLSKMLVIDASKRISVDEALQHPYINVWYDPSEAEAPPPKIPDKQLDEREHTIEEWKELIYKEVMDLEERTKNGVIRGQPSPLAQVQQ
Experimental: as §1, §2, §3

[5] = molecular target: T4, MKK4 (Homo sapiens, UniProt P45985); test: KINOMEscan competition binding assay, MKK4 potency; conditions: concentration of 100 nM
T4 construct: S84/D399; host or cells: HEK-293
T4 sequence (P45985 84-399): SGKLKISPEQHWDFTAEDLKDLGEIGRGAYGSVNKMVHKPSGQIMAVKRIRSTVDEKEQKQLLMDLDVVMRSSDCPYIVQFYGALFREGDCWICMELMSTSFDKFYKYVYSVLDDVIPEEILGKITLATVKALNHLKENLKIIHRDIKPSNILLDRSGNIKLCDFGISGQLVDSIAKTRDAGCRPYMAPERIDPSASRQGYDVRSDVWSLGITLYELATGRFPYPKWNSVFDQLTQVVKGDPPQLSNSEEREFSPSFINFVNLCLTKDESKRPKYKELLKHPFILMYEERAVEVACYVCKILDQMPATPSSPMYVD
Experimental: as §1, §2, §3

Cc1cc(F)ccc1-c1cnc2[nH]nc(C(=O)c3cccc(NS(C)(=O)=O)c3F)c2c1 [Example 39, N-(2-fluoro-3-(5-(4-fluoro-2-methylphenyl)-1H-pyrazo-lo[3,4-b]pyridine-3-carbonyl)-phenyl)methanesulfonamide]
IC50 [1]: > 10 µM

CCCS(=O)(=O)Nc1ccc(F)c(C(=O)c2n[nH]c3ncc(-c4ccc(OC)cc4Cl)cc23)c1F [Example 5, N-(3-(5-(2-chloro-4-methoxy-phenyl)-1H-pyrazolo[3,4-b]-pyridine-3-carbonyl)-2,4-difluorophenyl)propane-1-sulfonamide]
IC50 [1]: > 10 µM

CCCS(=O)(=O)Nc1c(F)ccc(C(=O)c2n[nH]c3ncc(-c4ccc(S(N)(=O)=O)cc4C)cc23)c1F [Example 70, 4-(3-(2,4-difluoro-3-(propylsulfonamido)benzoyl)-1H-pyrazolo[3,4-b]pyridin-5-yl)-3-methylbenzenesulfonamide]
IC50 [1]: 0.5 to 1 µM

CCCS(=O)(=O)Nc1c(F)ccc(C(=O)c2n[nH]c3ncc(-c4ccc(C(C)C)cc4)cc23)c1F [Example 65, N-(2,6-difluoro-3-(5-(4-isopropyl-phenyl)-1H-pyrazolo[3,4-b]pyridine-3-carbonyl)phenyl)propane-1-sulfonamide]
IC50 [1]: 1 to 10 µM

CCCS(=O)(=O)Nc1c(F)ccc(C(=O)c2n[nH]c3ncc(-c4ccc(C5N=NN=N5)cc4)cc23)c1F [Example 74, N-(3-(5-(4-(1H-tetrazol-5-yl)phenyl)-1H-pyrazolo[3,4-b]pyridine-3-carbonyl)-2,6-difluorophenyl)propane-1-sulfonamide]
IC50 [1]: 1 to 10 µM

CS(=O)(=O)Nc1ccc(F)c(C(=O)c2n[nH]c3ncc(-c4ccc(S(N)(=O)=O)cc4)cc23)c1F [Example 51b, 4-(3-(2,6-difluoro-3-(methylsulfonamido)benzoyl)-1H-pyrazolo[3,4-b]pyridin-5-yl) benzenesulfonamide]
IC50 [1]: 1 to 10 µM

CS(=O)(=O)Nc1cccc(C(=O)c2n[nH]c3ncc(-c4ccc5c(c4)OCCO5)cc23)c1F [Example 40, N-(3-(5-(2,3-dihydro-benzo-[b][1,4]dioxin-6-yl)-1H-pyrazolo[3,4-b]pyridine-3-carbonyl)-2-fluoro-phenyl)-methanesulfonamide]
IC50 [1]: > 10 µM

CCCCS(=O)(=O)Nc1cccc(C(=O)c2n[nH]c3ncc(-c4ccc(OC)cc4Cl)cc23)c1F [Example 41, N-(3-(5-(2-chloro-4-methoxy-phenyl)-1H-pyrazolo[3,4-b]pyridine-3-carbonyl)-2-fluorophenyl)-butane-1-sulfonamide]
IC50 [1]: > 10 µM

CCCCS(=O)(=O)Nc1cccc(C(=O)c2n[nH]c3ncc(-c4ccc(F)cc4C)cc23)c1F [Example 42, N-(2-fluoro-3-(5-(4-fluoro-2-methylphenyl)-1H-pyrazo-lo[3,4-b]pyridine-3-carbonyl)-phenyl)butane-1-sulfonamide]
IC50 [1]: > 10 µM

CCCS(=O)(=O)Nc1ccc(F)c(C(=O)c2n[nH]c3ncc(-c4ccccc4N)cc23)c1F [Example 26, N-(3-(5-(2-aminophenyl)-1H-pyrazolo[3,4-b]pyridine-3-carbonyl)-2,4-difluorophenyl)-propane-1-sulfonamide]
Selectivity vs. MKK7, ratio PoC(MKK7)/PoC(MKK4) [2]: + (10 > PoC(MKK7)/PoC(MKK4) ≥ 3)
Selectivity vs. BRaf, ratio PoC(BRaf)/PoC(MKK4) [3]: + (10 > PoC(BRaf)/PoC(MKK4) ≥ 3)
Selectivity vs. JNK1, ratio PoC(JNK1)/PoC(MKK4) [4]: + (10 > PoC(JNK1)/PoC(MKK4) ≥ 3)
MKK4, residual percent of control binding (PoC) [5]: + (10 ≤ PoC < 30)

CCCS(=O)(=O)Nc1ccc(F)c([S+]([O-])c2n[nH]c3ncc(-c4ccc(Cl)cc4)cc23)c1F (stereo not shown) [Example 47, N-(3-((5-(4-chlorophenyl)-1H-pyrazolo[3,4-b]pyridin-3-yl)sulfinyl)-2,4-difluorophenyl)propane-1-sulfonamide]
Selectivity vs. MKK7, ratio PoC(MKK7)/PoC(MKK4) [2]: O (PoC(MKK7)/PoC(MKK4) < 3)
Selectivity vs. BRaf, ratio PoC(BRaf)/PoC(MKK4) [3]: O (PoC(BRaf)/PoC(MKK4) < 3)
Selectivity vs. JNK1, ratio PoC(JNK1)/PoC(MKK4) [4]: O (PoC(JNK1)/PoC(MKK4) < 3)
MKK4, residual percent of control binding (PoC) [5]: O (PoC ≥ 30)

CCCS(=O)(=O)Nc1ccc(F)c(Sc2n[nH]c3ncc(-c4ccc(Cl)cc4)cc23)c1F [Example 46, N-(3-((5-(4-chlorophenyl)-1H-pyrazolo[3,4-b]pyridin-3-yl)thio)-2,4-difluorophenyl)propane-1-sulfonamide]
Selectivity vs. MKK7, ratio PoC(MKK7)/PoC(MKK4) [2]: O (PoC(MKK7)/PoC(MKK4) < 3)
Selectivity vs. BRaf, ratio PoC(BRaf)/PoC(MKK4) [3]: O (PoC(BRaf)/PoC(MKK4) < 3)
Selectivity vs. JNK1, ratio PoC(JNK1)/PoC(MKK4) [4]: O (PoC(JNK1)/PoC(MKK4) < 3)
MKK4, residual percent of control binding (PoC) [5]: O (PoC ≥ 30)

CCCCS(=O)(=O)Nc1cccc(C(=O)c2n[nH]c3ncc(-c4ccc5c(c4)OCCO5)cc23)c1F [Example 43, N-(3-(5-(2,3-dihydro-benzo-[b][1,4]dioxin-6-yl)-1H-pyrazolo[3,4-b]-pyridine-3-carbonyl)-2-fluorophenyl)-butane-1-sulfonamide]
Selectivity vs. MKK7, ratio PoC(MKK7)/PoC(MKK4) [2]: + (10 > PoC(MKK7)/PoC(MKK4) ≥ 3)
Selectivity vs. BRaf, ratio PoC(BRaf)/PoC(MKK4) [3]: + (10 > PoC(BRaf)/PoC(MKK4) ≥ 3)
Selectivity vs. JNK1, ratio PoC(JNK1)/PoC(MKK4) [4]: + (10 > PoC(JNK1)/PoC(MKK4) ≥ 3)
MKK4, residual percent of control binding (PoC) [5]: + (10 ≤ PoC < 30)

CCCS(=O)(=O)Nc1ccc(F)c(C(=O)c2n[nH]c3ncc(-c4ccc(Cl)c(C(F)(F)F)c4)cc23)c1F [Example 36, N-(3-(5-(4-chloro-3-(trifluoromethyl)phenyl)-1H-pyrazolo[3,4-13]-pyridine-3-carbonyl)-2,4-difluorophenyl)-propane-1-sulfonamide]
Selectivity vs. MKK7, ratio PoC(MKK7)/PoC(MKK4) [2]: + (10 > PoC(MKK7)/PoC(MKK4) ≥ 3)
Selectivity vs. BRaf, ratio PoC(BRaf)/PoC(MKK4) [3]: O (PoC(BRaf)/PoC(MKK4) < 3)
Selectivity vs. JNK1, ratio PoC(JNK1)/PoC(MKK4) [4]: + (10 > PoC(JNK1)/PoC(MKK4) ≥ 3)
MKK4, residual percent of control binding (PoC) [5]: + (10 ≤ PoC < 30)

CCCS(=O)(=O)Nc1ccc(F)c(C(=O)c2n[nH]c3ncc(-c4cccc(C(F)(F)F)c4)cc23)c1F [Example 30, N-(2,4-difluoro-3-(5-(3-(trifluoromethyl)phenyl)-1H-pyrazolo[3,4-b]pyridine-3-carbonyl)phenyl)propane-1-sulfonamide]
Selectivity vs. MKK7, ratio PoC(MKK7)/PoC(MKK4) [2]: O (PoC(MKK7)/PoC(MKK4) < 3)
Selectivity vs. BRaf, ratio PoC(BRaf)/PoC(MKK4) [3]: O (PoC(BRaf)/PoC(MKK4) < 3)
Selectivity vs. JNK1, ratio PoC(JNK1)/PoC(MKK4) [4]: O (PoC(JNK1)/PoC(MKK4) < 3)
MKK4, residual percent of control binding (PoC) [5]: O (PoC ≥ 30)

CCCS(=O)(=O)Nc1ccc(F)c(NC(=O)c2n[nH]c3ncc(-c4ccc(Cl)cc4)cc23)c1F [Example 45, 5-(4-chlorophenyl)-N-(2,6-difluoro-3-(propylsulfonamido)phenyl)-1H-pyrazolo[3,4-b]pyridine-3-carboxamide]
Selectivity vs. MKK7, ratio PoC(MKK7)/PoC(MKK4) [2]: O (PoC(MKK7)/PoC(MKK4) < 3)
Selectivity vs. BRaf, ratio PoC(BRaf)/PoC(MKK4) [3]: O (PoC(BRaf)/PoC(MKK4) < 3)
Selectivity vs. JNK1, ratio PoC(JNK1)/PoC(MKK4) [4]: O (PoC(JNK1)/PoC(MKK4) < 3)
MKK4, residual percent of control binding (PoC) [5]: O (PoC ≥ 30)
